Measured values taken from the supplement of paper PMC10331698.
± gives the standard deviation of the averaged measurements.

Compound: O=S(=O)(O)C(F)(F)C(F)(F)OC(F)(F)C(F)(F)F [Perfluoro(2-ethoxyethane)sulfonic acid] (in DMSO)
Test: level (log10 ratio to DMSO vehicle control); higher = higher biomarker level / cell amount than vehicle control
Procedure: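 BioMAP Diversity Plus panel of 12 human primary cell co-culture systems (3C, 4H, LPS, SAg, BT, BF4T, BE3C, CASM3C, HDF3CGF, KF3CT, MyoF, Mphg). Compounds were added 1 h before stimulation and left for 24 h (MyoF 48 h; BT 72 h for soluble read-outs or 6 d for IgG). Biomarkers were read by ELISA, cytotoxicity by SRB, PBMC viability and proliferation by Alamar Blue. Each well value was divided by the mean of 8 DMSO control wells on the same plate and log10 transformed; duplicate blinded samples were tested at 4 concentrations.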

| Test System | level (log10) (6700 nM) | level (log10) (20000 nM) | level (log10) (60000 nM) |
| --- | --- | --- | --- |
| 3C:CCL2/MCP-1 | -0.022 ± 0.03 | -0.014 ± 0.014 | -0.0095 ± 0.019 |
| 3C:CD54/ICAM-1 | -0.0105 ± 0.028 | -0.0095 ± 0.023 | -0.01 ± 0.024 |
| 3C:CD62E/E-Selectin | 0.0125 ± 0.012 | 0 | 0.0125 ± 0.0064 |
| 3C:CD106/VCAM-1 | 0.008 ± 0.033 | 0.002 ± 0.0071 | 0 ± 0.0085 |
| 3C:CD141/Thrombomodulin | 0.0085 ± 0.018 | -0.0145 ± 0.036 | -0.023 ± 0.0028 |
| 3C:CD142/Tissue Factor | 0.013 ± 0.0057 | -0.001 ± 0.024 | 0.017 ± 0.0042 |
| BE3C:Keratin 8/18 | -0.007 ± 0.013 | -0.0105 ± 0.013 | -0.01 ± 0.011 |
| BE3C:MMP-1 | -0.001 ± 0.0071 | 0.0055 ± 0.018 | 0.108 ± 0.069 |
| BE3C:MMP-9 | -0.0015 ± 0.00071 | -0.0005 ± 0.015 | 0.0265 ± 0.012 |
| BE3C:PAI-I | -0.011 ± 0.023 | 0.0015 ± 0.021 | 0.032 ± 0.014 |
| BE3C:SRB | -0.001 ± 0.0042 | 0 ± 0.0014 | 0.0055 ± 0.018 |
| BE3C:tPA | -0.004 ± 0.034 | -0.053 ± 0.013 | 0.0595 ± 0.013 |
| BE3C:uPA | -0.0015 ± 0.022 | -0.0145 ± 0.039 | -0.004 ± 0.023 |
| CASM3C:CCL2/MCP-1 | -0.003 ± 0.024 | -0.013 ± 0.0071 | -0.0115 ± 0.036 |
| CASM3C:CD87/uPAR | 0.0025 ± 0.032 | 0.01 ± 0.024 | -0.0165 ± 0.046 |
| CASM3C:CD106/VCAM-1 | -0.0035 ± 0.023 | -0.0165 ± 0.026 | 0.001 ± 0.018 |
| CASM3C:CD141/Thrombomodulin | 0.005 ± 0.011 | -0.015 ± 0.0071 | 0.023 ± 0.044 |
| CASM3C:CD142/Tissue Factor | -0.023 ± 0.0085 | -0.0335 ± 0.035 | 0.045 ± 0.067 |
| CASM3C:CXCL8/IL-8 | -0.0095 ± 0.00071 | -0.0055 ± 0.0078 | 0.0265 ± 0.005 |
| CASM3C:CXCL9/MIG | -0.0205 ± 0.0064 | -0.0105 ± 0.0035 | 0.0145 ± 0.057 |
| CASM3C:HLA-DR | 0.011 ± 0.0099 | 0 ± 0.02 | -0.005 ± 0.016 |
| CASM3C:IL-6 | -0.024 ± 0.0028 | -0.041 ± 0.033 | -0.0725 ± 0.015 |
| CASM3C:LDLR | -0.006 ± 0.0014 | -0.0085 ± 0.00071 | 0.0005 ± 0.023 |
| CASM3C:M-CSF | -0.0075 ± 0.011 | 0 ± 0.031 | 0.0615 ± 0.057 |
| CASM3C:PAI-I | 0.004 ± 0.0071 | 0.0015 ± 0.012 | 0.015 ± 0.011 |
| CASM3C:Proliferation | -0.0405 ± 0.052 | -0.0015 ± 0.018 | 0.048 ± 0.03 |
| CASM3C:SRB | -0.002 ± 0.0028 | -0.003 ± 0.0028 | 0.001 ± 0.0071 |

| Test System | level (log10) (6700 nM) | level (log10) (20000 nM) | level (log10) (60000 nM) |
| --- | --- | --- | --- |
| CASM3C:Serum Amyloid A | 0.029 ± 0.044 | 0.133 ± 0.18 | 0.344 ± 0.22 |
| HDF3CGF:CCL2/MCP-1 | 0.014 ± 0.0057 | 0.0175 ± 0.0078 | 0.035 ± 0.031 |
| HDF3CGF:CD54/ICAM-1 | -0.0185 ± 0.0035 | -0.0205 ± 0.00071 | -0.012 ± 0.018 |
| HDF3CGF:CD106/VCAM-1 | -0.01 ± 0.05 | -0.0365 ± 0.09 | -0.016 ± 0.073 |
| HDF3CGF:CXCL8/IL-8 | -0.015 ± 0.0028 | -0.0075 ± 0.0064 | 0.0045 ± 0.0035 |
| HDF3CGF:CXCL9/MIG | 0.004 ± 0.0057 | 0.002 ± 0.0042 | -0.0055 ± 0.005 |
| HDF3CGF:CXCL10/IP-10 | 0.0105 ± 0.033 | -0.0145 ± 0.05 | -0.0105 ± 0.056 |
| HDF3CGF:CXCL11/I-TAC | 0.0165 ± 0.022 | 0.0055 ± 0.021 | -0.0365 ± 0.063 |
| HDF3CGF:Collagen I | -0.046 ± 0.024 | -0.037 ± 0.031 | 0.017 ± 0.055 |
| HDF3CGF:Collagen III | -0.062 ± 0.12 | -0.08 ± 0.085 | -0.025 ± 0.16 |
| HDF3CGF:EGFR | -0.035 ± 0.05 | -0.017 ± 0.042 | 0.0315 ± 0.07 |
| HDF3CGF:M-CSF | 0.004 ± 0.011 | -0.0075 ± 0.0092 | -0.009 ± 0.016 |
| HDF3CGF:MMP-1 | -0.004 ± 0.0071 | -0.0135 ± 0.029 | -0.0235 ± 0.053 |
| HDF3CGF:PAI-I | 0.025 ± 0.0014 | -0.003 ± 0.0071 | -0.021 ± 0.013 |
| HDF3CGF:Proliferation 72hr | -0.0225 ± 0.021 | 0.004 ± 0.0042 | -0.067 ± 0.03 |
| HDF3CGF:SRB | -0.02 ± 0.0085 | -0.017 ± 0.013 | 0.0085 ± 0.1 |
| HDF3CGF:TIMP-1 | 0.0415 ± 0.067 | 0.048 ± 0.04 | 0.0955 ± 0.071 |
| HDF3CGF:TIMP-2 | -0.011 ± 0.0099 | -0.0305 ± 0.015 | 0.02 ± 0.059 |
| KF3CT:CCL2/MCP-1 | -0.0025 ± 0.013 | -0.002 ± 0.016 | 0.0115 ± 0.032 |
| KF3CT:CD54/ICAM-1 | -0.002 ± 0.0099 | -0.0275 ± 0.0064 | -0.0165 ± 0.00071 |
| KF3CT:CXCL8/IL-8 | 0.0305 ± 0.016 | 0.0045 ± 0.022 | 0.036 ± 0.016 |
| KF3CT:CXCL9/MIG | 0.0105 ± 0.0064 | -0.0015 ± 0.012 | 0.0155 ± 0.0021 |
| KF3CT:CXCL10/IP-10 | 0.0025 ± 0.013 | -0.0075 ± 0.011 | -0.009 |
| KF3CT:IL-1alpha | 0.0005 ± 0.0064 | -0.013 ± 0.025 | 0.0045 ± 0.05 |
| KF3CT:MMP-9 | 0.009 ± 0.0085 | 0.036 ± 0.016 | 0.0515 ± 0.00071 |
| KF3CT:PAI-I | -0.01 | -0.0145 ± 0.0078 | -0.009 ± 0.013 |
| KF3CT:SRB | -0.0065 ± 0.00071 | -0.0035 ± 0.0035 | 0.007 ± 0.0099 |

| Test System | level (log10) (6700 nM) | level (log10) (20000 nM) | level (log10) (60000 nM) |
| --- | --- | --- | --- |
| KF3CT:TIMP-2 | 0.0035 ± 0.0092 | 0.01 | 0.0155 ± 0.005 |
| KF3CT:uPA | 0.013 ± 0.011 | 0.006 ± 0.021 | 0.0055 ± 0.022 |
| MyoF:CD106/VCAM-1 | 0.006 ± 0.013 | -0.0095 ± 0.015 | 0.013 ± 0.013 |
| MyoF:CXCL8/IL-8 | 0.0095 ± 0.037 | 0.0225 ± 0.03 | 0.03 ± 0.024 |
| MyoF:Collagen I | 0.016 ± 0.011 | -0.0025 ± 0.015 | 0.039 ± 0.014 |
| MyoF:Collagen III | -0.0035 ± 0.0092 | -0.005 ± 0.0071 | 0.0105 ± 0.012 |
| MyoF:Collagen IV | 0.0015 ± 0.0021 | 0.004 ± 0.016 | 0.0315 ± 0.04 |
| MyoF:Decorin | -0.0085 ± 0.0092 | 0.001 ± 0.013 | 0.0355 ± 0.005 |
| MyoF:MMP-1 | -0.005 ± 0.014 | -0.0365 ± 0.00071 | 0.0155 ± 0.037 |
| MyoF:PAI-I | -0.0005 ± 0.00071 | -0.009 ± 0.013 | 0.0015 ± 0.011 |
| MyoF:SRB | -0.005 ± 0.0071 | -0.005 | -0.0015 ± 0.0064 |
| MyoF:TIMP-1 | 0.003 ± 0.0014 | 0.036 ± 0.028 | 0.0775 ± 0.025 |
| MyoF:alpha-SM Actin | 0.006 ± 0.025 | 0.0075 ± 0.0078 | -0.017 ± 0.0028 |
| MyoF:bFGF | 0.003 ± 0.0014 | 0.0085 ± 0.0064 | 0.0165 ± 0.0092 |
| lMphg:CCL2/MCP-1 | -0.01 ± 0.03 | 0.005 ± 0.028 | -0.002 ± 0.0042 |
| lMphg:CCL3/MIP-1alpha | 0.0145 ± 0.025 | 0.0015 ± 0.0064 | 0.0065 ± 0.021 |
| lMphg:CD40 | -0.018 ± 0.02 | -0.013 ± 0.037 | -0.0215 ± 0.025 |
| lMphg:CD62E/E-Selectin | 0.0175 ± 0.0092 | 0.0275 ± 0.0092 | 0.0425 ± 0.0092 |
| lMphg:CD69 | -0.043 ± 0.075 | 0.011 ± 0.0099 | -0.0415 ± 0.0078 |
| lMphg:CD106/VCAM-1 | -0.0225 ± 0.0064 | -0.016 ± 0.017 | -0.023 ± 0.0014 |
| lMphg:CXCL8/IL-8 | 0.0055 ± 0.005 | 0.034 ± 0.018 | 0.118 ± 0.016 |
| lMphg:IL-1alpha | 0.006 ± 0.011 | 0.012 ± 0.0071 | 0.0335 ± 0.026 |
| lMphg:M-CSF | 0.0025 ± 0.0092 | -0.011 ± 0.0028 | -0.011 ± 0.0071 |
| lMphg:SRB | -0.001 ± 0.0014 | 0 ± 0.013 | -0.021 ± 0.0071 |
| lMphg:SRB-Mphg | 0.0125 ± 0.005 | 0.0155 ± 0.015 | -0.0045 ± 0.025 |
| lMphg:sIL-10 | 0.0105 ± 0.13 | -0.0625 ± 0.005 | -0.818 ± 0.028 |
